Converted amounts (≈) assume the structure as drawn. “And” between values parts separate entries of the source, which are not always exact repeats. Equal values may be shown once. Read-outs that look alike come from different tables or passages of the source. Bridge positions count the residues as written; N and C are the ends. Square brackets hold non-standard residues; d marks the D form. Peptide text beside a SMILES is read from it. * marks the point of attachment. ξ: configuration not given here. Hexadienoyl(2E,4E) = C/C=C/C=C/C(=O)*; ξPro(4ξ-Me) = CC1CNC(C(=O)O)C1; X2 = CCC/C=C/C=C/C(=O)*; NMeA = CN[CH](C)C(=O)O
Legend:
[1] = test system: Bacteroides vulgatis 1211; test: MIC, agar-dilution method; type: cell-based
[2] = test system: Streptococcus pneumoniae Park I; conditions: second test, Table 13
[3] = test system: Fusobacterium symbiosum 1470; test: MIC, agar-dilution method; type: cell-based
[4] = test system: Peptococcus asaccharolyticus 1302; test: MIC, agar-dilution method; type: cell-based; conditions: Peptoniphilus asaccharolyticus
Electrometric titration = type: physicochemical; conditions: 66 percent dimethylformamide in water
Source text: Antibiotic A54556 factor A is a tan, amorphous solid. […] As determined by electron impact and field desorption mass spectrometry, A54556 factor A has a molecular weight of 718.

[5] = test system: Bacteroides melaninogenicus 1856/28; test: MIC, agar-dilution method; type: cell-based; conditions: Prevotella intermedia
Source text: (§1) Antibiotic A54556 factors A, B, C, D, E, F, G, and H have been tested and found to be active against a number of anaerobic bacteria, as recorded in Table 14, which follows, the MIC values having been determined by the agar-dilution method.

[6] = test system: Clostridium difficile 2994; test: MIC, agar-dilution method; type: cell-based; conditions: Clostridioides difficile
Source text: as §1

[7] = test system: Bacteroides fragilis 1877; test: MIC, agar-dilution method; type: cell-based
Source text: as §1

[8] = test system: Propionibacterium acnes 79; test: MIC, agar-dilution method; type: cell-based; conditions: Cutibacterium acnes
Source text: as §1

[9] = test system: Clostridium septicum 1128; test: MIC, agar-dilution method; type: cell-based
Source text: as §1

[10] = test system: Peptostreptococcus intermedius 1264; test: MIC, agar-dilution method; type: cell-based
Source text: as §1

[11] = test system: Bacteroides thetaiotaomicron 1438; test: MIC, agar-dilution method; type: cell-based
Source text: as §1

[12] = test system: Bacteroides fragilis 1936B; test: MIC, agar-dilution method; type: cell-based
Source text: as §1

[13] = test system: Fusobacterium necrophorum 6054A; test: MIC, agar-dilution method; type: cell-based
Source text: as §1

[14] = test system: Bacteroides melaninogenicus 2736; test: MIC, agar-dilution method; type: cell-based
Source text: as §1

Bacteroides fragilis 111 = test: MIC, agar-dilution method; type: cell-based
Source text: as §1

[15] = test system: Eubacterium aerofaciens 1235; test: MIC, agar-dilution method; type: cell-based; conditions: Collinsella aerofaciens
Source text: as §1

[16] = test system: Streptococcus sp. (Group D) X66; test: Disc-plate sensitivity; type: cell-based; conditions: second test, Table 13; for zone of inhibition at 30 µg/disc / zone of inhibition at 300 µg/disc: Streptococcus
[17] = test system: Bacteroides corrodens 1874; test: MIC, agar-dilution method; type: cell-based; conditions: Eikenella corrodens
anaerobic bacteria = test: Activity against anaerobic bacteria; type: cell-based; conditions: agar-dilution method
[18] = test system: Streptococcus pyogenes (Group A) C203; conditions: second test, Table 13
[19] = test system: Staphylococcus epidermidis EPI1; conditions: second test, Table 13
[20] = test system: Staphylococcus aureus V41; conditions: second test, Table 13, benzylpenicillin resistant
Solubility = conditions: lower alcohols (methyl, ethyl, isopropyl, n-propyl, n-butyl), acetone, ethyl acetate, tetrahydrofuran, pyridine, dimethyl sulfoxide
S. pyogenes = test: In vivo protection against experimental bacterial infection in mice; conditions: Streptococcus pyogenes, sc, two doses subcutaneously
Method: (§2) When two doses of test compound were administered subcutaneously to mice in illustrative infections, the activity is measured as an ED50 value [effective does in mg./kg. to protect fifty percent of the test animals: See Warren Wick et al., J. Bacteriol. 81, 233-235 (1961)]. The ED50 values for these antibiotic A54556 factors are recorded in Table 15, which follows.

[21] = test system: Staphylococcus aureus 3055; conditions: second test, Table 13, benzylpenicillin-susceptible
[22] = test system: experimental bacterial infections; test: In vivo antimicrobial activity against experimental bacterial infections; conditions: mice, subcutaneously
Method: as §2

[23] = test system: Clostridium perfringens 81; test: microbe, parasite or virus in culture; type: cell-based
[24] = test system: Peptostreptococcus anaerobius 1428; test: MIC, agar-dilution method; type: cell-based
Peptococcus prevoti 1281 = test: MIC, agar-dilution method; type: cell-based
[25] = read-out: Zone diameter, 30 mcg./disc
[26] = read-out: Zone diameter, 300 mcg./disc

C/C=C/C=C/C(=O)NC(Cc1ccccc1)C(=O)NC1COC(=O)C2CCCN2C(=O)C(C)NC(=O)C(C)N(C)C(=O)C2CC(C)CN2C1=O (stereo not shown) [Factor C] ({Hexadienoyl(2E,4E)}-FS[ξPro(4ξ-Me)][NMeA]AP; ester 2-C; configuration not given here)
MIC [1]: > 128 µg/mL | Zone diameter ([2]; 30 mcg./disc): 25 mm. and 30 mm. | Zone diameter ([2]; 300 mcg./disc): 30 mm. | Zone diameter ([2]; 300 mcg./disc, listed as C): 35 mm. | MIC [3]: > 128 µg/mL | MIC ([4]; agar-dilution, read-out: MIC): 16 µg/mL (≈ 23.1 µM) | titratable groups (Electrometric titration): no titratable groups | MIC [5]: > 128 µg/mL | MIC [6]: > 128 µg/mL | MIC [7]: > 128 µg/mL | MIC [8]: 32 µg/mL (≈ 46.2 µM) | MIC [9]: > 128 µg/mL | MIC [10]: > 128 µg/mL | MIC [11]: > 128 µg/mL | MIC [12]: > 128 µg/mL | MIC [13]: > 128 µg/mL | MIC [14]: > 128 µg/mL | MIC (Bacteroides fragilis 111): > 128 µg/mL | MIC [15]: > 128 µg/mL | Zone diameter ([16]; 30 mcg./disc): 25 mm. | Zone diameter ([16]; 300 mcg./disc, listed as C): 35 mm. | zone of inhibition at 30 µg/disc ([16]; 30 mcg./disc, read-out: Zone diameter): 24 mm | zone of inhibition at 300 µg/disc ([16]; 300 mcg./disc, read-out: Zone diameter): 25 mm | MIC [17]: > 128 µg/mL | activity against a number of anaerobic bacteria (anaerobic bacteria): active | Zone diameter ([18]; 30 mcg./disc): 22 mm. and 28 mm. | Zone diameter ([18]; 300 mcg./disc): 30 mm. | Zone diameter ([18]; 300 mcg./disc, listed as C): 33 mm. | Zone diameter ([19]; 30 mcg./disc): 21 mm. and 23 mm. | Zone diameter ([19]; 300 mcg./disc): 24 mm. | Zone diameter ([19]; 300 mcg./disc, listed as C): 26 mm. | Zone diameter ([20]; 30 mcg./disc): 24 mm. | Zone diameter ([20]; 30 mcg./disc, listed as C): 21 mm. | Zone diameter ([20]; 300 mcg./disc): 30 mm. and 25 mm. | solubility in organic solvents (Solubility): soluble | ED50 (S. pyogenes): 11.1 mg/kg | Zone diameter ([21]; 30 mcg./disc): 21 mm. and 23 mm. | Zone diameter ([21]; 300 mcg./disc): 25 mm. and 31 mm. | in vivo antimicrobial activity against experimental bacterial infections [22]: have shown in vivo antimicrobial activity | MIC [23]: > 128 µg/mL | MIC [24]: > 128 µg/mL | MIC (Peptococcus prevoti 1281): > 128 µg/mL

C/C=C/C=C/C(=O)NC(Cc1ccccc1)C(=O)NC1COC(=O)C2CCCN2C(=O)C(C)NC(=O)C(C)N(C)C(=O)C2CCCN2C1=O (stereo not shown) [Factor E] ({Hexadienoyl(2E,4E)}-FSP[NMeA]AP; ester 2-C; configuration not given here)
MIC [1]: > 128 µg/mL | Zone diameter ([2]; 30 mcg./disc): 25 mm. | Zone diameter ([2]; 30 mcg./disc, listed as E): 22 mm. | Zone diameter ([2]; 300 mcg./disc): 35 mm. and 28 mm. | MIC [3]: 128 µg/mL (≈ 189 µM) | MIC [4]: 64 µg/mL (≈ 94.3 µM) | titratable groups (Electrometric titration): no titratable groups | MIC [5]: > 128 µg/mL | MIC [6]: > 128 µg/mL | MIC [7]: > 128 µg/mL | MIC [8]: > 128 µg/mL | MIC [9]: > 128 µg/mL | MIC [10]: > 128 µg/mL | MIC [11]: > 128 µg/mL | MIC [12]: > 128 µg/mL | MIC [13]: > 128 µg/mL | MIC [14]: > 128 µg/mL | MIC (Bacteroides fragilis 111): > 128 µg/mL | MIC [15]: > 128 µg/mL | Zone diameter ([16]; 30 mcg./disc, listed as E): 21 mm. | Zone diameter ([16]; 300 mcg./disc): 27 mm. | zone of inhibition at 30 µg/disc [16, 25]: 22 mm | zone of inhibition at 300 µg/disc [16, 26]: 28 mm | MIC [17]: > 128 µg/mL | activity against a number of anaerobic bacteria (anaerobic bacteria): active | Zone diameter ([18]; 30 mcg./disc, listed as E): 20 mm. and 18 mm. | Zone diameter ([18]; 300 mcg./disc): 30 mm. and 24 mm. | Zone diameter ([19]; 30 mcg./disc, listed as E): 13 mm. and 11 mm. | Zone diameter ([19]; 300 mcg./disc): 25 mm. and 24 mm. | Zone diameter ([20]; 30 mcg./disc): 17 mm. | Zone diameter ([20]; 30 mcg./disc, listed as E): 13 mm. | Zone diameter ([20]; 300 mcg./disc): 27 mm. and 23 mm. | solubility in organic solvents (Solubility): soluble | ED50 (S. pyogenes): > 70 mg/kg | Zone diameter ([21]; 30 mcg./disc): 17 mm. | Zone diameter ([21]; 30 mcg./disc, listed as E): 15 mm. | Zone diameter ([21]; 300 mcg./disc): 23 mm. | in vivo antimicrobial activity against experimental bacterial infections [22]: have shown in vivo antimicrobial activity | MIC [23]: > 128 µg/mL | MIC [24]: > 128 µg/mL | MIC (Peptococcus prevoti 1281): 128 µg/mL (≈ 189 µM)

CCC/C=C/C=C/C(=O)NC(Cc1ccccc1)C(=O)NC1COC(=O)C2CCCN2C(=O)C(C)NC(=O)C(C)N(C)C(=O)C2CC(C)CN2C1=O (stereo not shown) [Factor D] (X2-FS[ξPro(4ξ-Me)][NMeA]AP; ester 2-C; configuration not given here)
MIC [1]: > 128 µg/mL | Zone diameter ([2]; 30 mcg./disc): 30 mm. | Zone diameter ([2]; 300 mcg./disc): 34 mm. | MIC [3]: > 128 µg/mL | MIC [4]: 128 µg/mL (≈ 178 µM) | titratable groups (Electrometric titration): no titratable groups | MIC [5]: > 128 µg/mL | MIC [6]: > 128 µg/mL | MIC [7]: > 128 µg/mL | MIC [8]: > 128 µg/mL | MIC [9]: > 128 µg/mL | MIC [10]: > 128 µg/mL | MIC [11]: > 128 µg/mL | MIC [12]: > 128 µg/mL | MIC [13]: > 128 µg/mL | MIC [14]: > 128 µg/mL | MIC (Bacteroides fragilis 111): > 128 µg/mL | MIC [15]: > 128 µg/mL | zone of inhibition at 30 µg/disc [16, 25]: 26 mm | zone of inhibition at 300 µg/disc [16, 26]: 33 mm | MIC [17]: > 128 µg/mL | activity against a number of anaerobic bacteria (anaerobic bacteria): active | Zone diameter ([18]; 30 mcg./disc): 24 mm. | Zone diameter ([18]; 300 mcg./disc): 32 mm. | Zone diameter ([19]; 30 mcg./disc): 25 mm. | Zone diameter ([19]; 300 mcg./disc): 34 mm. | Zone diameter ([20]; 30 mcg./disc): 27 mm. | Zone diameter ([20]; 300 mcg./disc): 28 mm. | ED50 (S. pyogenes): > 70 mg/kg | Zone diameter ([21]; 30 mcg./disc): 29 mm. | Zone diameter ([21]; 300 mcg./disc): 30 mm. | in vivo antimicrobial activity against experimental bacterial infections [22]: have shown in vivo antimicrobial activity | MIC [23]: > 128 µg/mL | MIC [24]: 128 µg/mL (≈ 178 µM) | MIC (Peptococcus prevoti 1281): > 128 µg/mL
